# According to ChEMBL document CHEMBL2074048, “Identification of a region of the ileal-type sodium/bile acid cotransporter interacting with a competitive bile acid transport inhibitor” (Biochemistry, 2002):
# Assays:
# [1] = biological target: T1, Ileal sodium/bile acid cotransporter (Homo sapiens, UniProt Q12908); assay: (§1) TP_TRANSPORTER: inhibition of Taurocholate accumulation in ASBT-expressing HEK293 cells; format: functional, cell-based
# T1 sequence (Q12908 whole entry): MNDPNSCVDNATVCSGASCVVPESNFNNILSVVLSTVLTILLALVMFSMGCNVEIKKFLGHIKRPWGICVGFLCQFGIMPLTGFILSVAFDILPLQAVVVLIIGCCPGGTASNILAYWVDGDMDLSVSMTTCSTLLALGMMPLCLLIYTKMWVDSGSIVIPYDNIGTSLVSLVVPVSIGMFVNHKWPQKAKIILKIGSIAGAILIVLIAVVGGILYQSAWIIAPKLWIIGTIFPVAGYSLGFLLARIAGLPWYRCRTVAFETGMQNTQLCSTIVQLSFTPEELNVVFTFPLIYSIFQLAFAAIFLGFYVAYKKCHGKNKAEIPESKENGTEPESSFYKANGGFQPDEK
# [2] = biological target: T2, Ileal sodium/bile acid cotransporter (Mus musculus, UniProt P70172); assay: as §1; format: functional, cell-based
# T2 sequence (P70172 whole entry): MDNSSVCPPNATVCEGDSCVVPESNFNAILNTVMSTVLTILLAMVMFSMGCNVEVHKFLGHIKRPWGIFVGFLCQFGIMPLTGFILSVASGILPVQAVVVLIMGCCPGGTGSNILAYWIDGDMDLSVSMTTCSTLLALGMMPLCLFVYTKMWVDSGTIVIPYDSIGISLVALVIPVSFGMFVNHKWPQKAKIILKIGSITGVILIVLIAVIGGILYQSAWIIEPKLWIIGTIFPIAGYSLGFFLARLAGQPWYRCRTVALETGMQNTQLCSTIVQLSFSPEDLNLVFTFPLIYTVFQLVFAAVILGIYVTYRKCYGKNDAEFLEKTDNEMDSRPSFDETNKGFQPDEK
structure (smiles),measurement,setting,value
CCCC[C@]1(CC)CS(=O)(=O)c2ccccc2[C@@H](c2ccccc2)N1,Ki,[1],10 µM
same,Ki,[2],0.068 µM
